Assay results: patent publication US20100099561A1, “HETEROBICYCLIC ALKYLTHIO-BRIDGED ISOXAZOLINES” (E.I. DU PONT DE NEMOURS AND COMPANY, priority 2008, published 2010)

Columns and labels:
Assay type in all cases: in vivo
[1] = test system: barnyardgrass (Echinochloa crus-galli); experiment: Test A preemergence, barnyardgrass; details: 0 to 100 scale (0 no effect, 100 complete control)
Summary of the method: (§1)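 Greenhouse pre/postemergence test, loam–sand soil. Postemergence plants one- to two-leaf, 2–10 cm. Visual injury rating ~10 d after treatment, 0–100 vs untreated.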

[2] = test system: large crabgrass (Digitaria sanguinalis); experiment: Test A preemergence, large crabgrass; details: 0 to 100 scale (0 no effect, 100 complete control)
Summary of the method: as §1

[3] = test system: giant foxtail (Setaria faberi); experiment: Test A preemergence, giant foxtail; details: 0 to 100 scale (0 no effect, 100 complete control)
Summary of the method: as §1

[4] = test system: morningglory (Ipomoea spp.); experiment: Test A preemergence, morningglory; details: 0 to 100 scale (0 no effect, 100 complete control)
Summary of the method: as §1

[5] = test system: pigweed (Amaranthus retroflexus); experiment: Test A preemergence, pigweed; details: 0 to 100 scale (0 no effect, 100 complete control)
Summary of the method: as §1

[6] = test system: velvetleaf (Abutilon theophrasti); experiment: Test A preemergence, velvetleaf; details: 0 to 100 scale (0 no effect, 100 complete control)
Summary of the method: as §1

[7] = test system: wheat (Triticum aestivum); experiment: Test A preemergence, wheat; details: 0 to 100 scale (0 no effect, 100 complete control)
Summary of the method: as §1

[8] = test system: corn (Zea mays); experiment: Test A preemergence, corn; details: 0 to 100 scale (0 no effect, 100 complete control)
Summary of the method: as §1

[9] = test system: barnyardgrass (Echinochloa crus-galli); experiment: Test A postemergence, barnyardgrass; details: 0 to 100 scale (0 no effect, 100 complete control)
Summary of the method: as §1

[10] = test system: large crabgrass (Digitaria sanguinalis); experiment: Test A postemergence, large crabgrass; details: 0 to 100 scale (0 no effect, 100 complete control)
Summary of the method: as §1

[11] = test system: giant foxtail (Setaria faberi); experiment: Test A postemergence, giant foxtail; details: 0 to 100 scale (0 no effect, 100 complete control)
Summary of the method: as §1

[12] = test system: morningglory (Ipomoea spp.); experiment: Test A postemergence, morningglory; details: 0 to 100 scale (0 no effect, 100 complete control)
Summary of the method: as §1

[13] = test system: pigweed (Amaranthus retroflexus); experiment: Test A postemergence, pigweed; details: 0 to 100 scale (0 no effect, 100 complete control)
Summary of the method: as §1

[14] = test system: velvetleaf (Abutilon theophrasti); experiment: Test A postemergence, velvetleaf; details: 0 to 100 scale (0 no effect, 100 complete control)
Summary of the method: as §1

[15] = test system: wheat (Triticum aestivum); experiment: Test A postemergence, wheat; details: 0 to 100 scale (0 no effect, 100 complete control)
Summary of the method: as §1

[16] = test system: corn (Zea mays); experiment: Test A postemergence, corn; details: 0 to 100 scale (0 no effect, 100 complete control)
Summary of the method: as §1

[17] = test system: rice (Oryza sativa); experiment: Test B flooded paddy test, rice; details: Flood, scale 0 to 100
Summary of the method: (§2)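 Step one: raise plants to 2 leaves. Step two: flood pots 3 cm over the soil and apply compound into the water, keeping this depth. Step three: after 13–15 greenhouse days, score visually versus controls, 0–100, where 100 means complete control.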

[18] = test system: umbrella sedge (Cyperus difformis); experiment: Test B flooded paddy test, umbrella sedge; details: Flood, scale 0 to 100
Summary of the method: as §2

[19] = test system: ducksalad (Heteranthera limosa); experiment: Test B flooded paddy test, ducksalad; details: Flood, scale 0 to 100
Summary of the method: as §2

[20] = test system: barnyardgrass (Echinochloa crus-galli); experiment: Test B flooded paddy test, barnyardgrass; details: Flood, scale 0 to 100
Summary of the method: as §2

Compound | Plant response rating, Barnyardgrass ([1]; 125 g ai/ha) | Plant response rating, Barnyardgrass ([1]; 500 g ai/ha) | Plant response rating, Crabgrass, Large ([2]; 125 g ai/ha) | Plant response rating, Crabgrass, Large ([2]; 500 g ai/ha) | Plant response rating, Foxtail, Giant ([3]; 125 g ai/ha) | Plant response rating, Foxtail, Giant ([3]; 500 g ai/ha) | Plant response rating, Morningglory ([4]; 125 g ai/ha) | Plant response rating, Morningglory ([4]; 500 g ai/ha) | Plant response rating, Pigweed ([5]; 125 g ai/ha) | Plant response rating, Pigweed ([5]; 500 g ai/ha) | Plant response rating, Velvetleaf ([6]; 125 g ai/ha) | Plant response rating, Velvetleaf ([6]; 500 g ai/ha) | Plant response rating, Wheat ([7]; 125 g ai/ha) | Plant response rating, Wheat ([7]; 500 g ai/ha) | Plant response rating, Corn ([8]; 125 g ai/ha) | Plant response rating, Corn ([8]; 500 g ai/ha) | Plant response rating, Barnyardgrass ([9]; 125 g ai/ha) | Plant response rating, Barnyardgrass ([9]; 500 g ai/ha) | Plant response rating, Crabgrass, Large ([10]; 125 g ai/ha) | Plant response rating, Crabgrass, Large ([10]; 500 g ai/ha) | other results
CC1(C)CC(S(=O)(=O)Cc2c(C(F)(F)Cl)nc3n(c2=O)CCCC3)=NO1 [Compound 30] | 50 | 100 | 90 | 100 | 90 | 100 | 30 | 40 | 70 | 100 | 40 | 60 | 0 | 50 | 0 | 0 | 60 | 80 | 60 | 80 | Plant response rating, Foxtail, Giant ([11]; 125 g ai/ha): 60; Plant response rating, Foxtail, Giant ([11]; 500 g ai/ha): 80; Plant response rating, Morningglory ([12]; 125 g ai/ha): 10; Plant response rating, Morningglory ([12]; 500 g ai/ha): 50; Plant response rating, Pigweed ([13]; 125 g ai/ha): 50; Plant response rating, Pigweed ([13]; 500 g ai/ha): 60; Plant response rating, Velvetleaf ([14]; 125 g ai/ha): 20; Plant response rating, Velvetleaf ([14]; 500 g ai/ha): 50; Plant response rating, Wheat ([15]; 125 g ai/ha): 0; Plant response rating, Wheat ([15]; 500 g ai/ha): 50; Plant response rating, Corn ([16]; 125 g ai/ha): 0; Plant response rating, Corn ([16]; 500 g ai/ha): 0; Plant response rating, Rice ([17]; 31 g ai/ha): 0; Plant response rating, Rice ([17]; 125 g ai/ha): 0; Plant response rating, Sedge, Umbrella ([18]; 31 g ai/ha): 0; Plant response rating, Sedge, Umbrella ([18]; 125 g ai/ha): 0; Plant response rating, Ducksalad ([19]; 31 g ai/ha): 0; Plant response rating, Ducksalad ([19]; 125 g ai/ha): 0; Plant response rating, Barnyardgrass ([20]; 31 g ai/ha): 0; Plant response rating, Barnyardgrass ([20]; 125 g ai/ha): 0
CC1(C)CC([S+]([O-])Cc2c(C(F)(F)Cl)nc3n(c2=O)CCCC3)=NO1 (centres unmarked) [Compound 32] | 20 | 70 | 50 | 80 | 30 | 80 | 0 | 0 | 0 | 0 | 0 | 0 | 0 | 0 | 0 | 0 | 10 | 40 | 10 | 40 | Plant response rating, Foxtail, Giant ([11]; 125 g ai/ha): 0; Plant response rating, Foxtail, Giant ([11]; 500 g ai/ha): 50; Plant response rating, Morningglory ([12]; 125 g ai/ha): 40; Plant response rating, Morningglory ([12]; 500 g ai/ha): 50; Plant response rating, Pigweed ([13]; 125 g ai/ha): 0; Plant response rating, Pigweed ([13]; 500 g ai/ha): 30; Plant response rating, Velvetleaf ([14]; 125 g ai/ha): 0; Plant response rating, Velvetleaf ([14]; 500 g ai/ha): 10; Plant response rating, Wheat ([15]; 125 g ai/ha): 0; Plant response rating, Wheat ([15]; 500 g ai/ha): 0; Plant response rating, Corn ([16]; 125 g ai/ha): 0; Plant response rating, Corn ([16]; 500 g ai/ha): 0; Plant response rating, Rice ([17]; 31 g ai/ha): 0; Plant response rating, Rice ([17]; 125 g ai/ha): 0; Plant response rating, Sedge, Umbrella ([18]; 31 g ai/ha): 0; Plant response rating, Sedge, Umbrella ([18]; 125 g ai/ha): 0; Plant response rating, Ducksalad ([19]; 31 g ai/ha): 0; Plant response rating, Ducksalad ([19]; 125 g ai/ha): 0; Plant response rating, Barnyardgrass ([20]; 31 g ai/ha): 0; Plant response rating, Barnyardgrass ([20]; 125 g ai/ha): 0
